The source made the active and inactive calls. The calls are words filed in the database; no cut-off is given here.
Legend:
[1] = target: T1, Hyaluronan mediated motility receptor (Homo sapiens, UniProt O75330); assay: Inhibition of recombinant RHAMM (unknown origin) binding to HA after 240 secs by SPR method
T1 sequence (O75330 whole entry): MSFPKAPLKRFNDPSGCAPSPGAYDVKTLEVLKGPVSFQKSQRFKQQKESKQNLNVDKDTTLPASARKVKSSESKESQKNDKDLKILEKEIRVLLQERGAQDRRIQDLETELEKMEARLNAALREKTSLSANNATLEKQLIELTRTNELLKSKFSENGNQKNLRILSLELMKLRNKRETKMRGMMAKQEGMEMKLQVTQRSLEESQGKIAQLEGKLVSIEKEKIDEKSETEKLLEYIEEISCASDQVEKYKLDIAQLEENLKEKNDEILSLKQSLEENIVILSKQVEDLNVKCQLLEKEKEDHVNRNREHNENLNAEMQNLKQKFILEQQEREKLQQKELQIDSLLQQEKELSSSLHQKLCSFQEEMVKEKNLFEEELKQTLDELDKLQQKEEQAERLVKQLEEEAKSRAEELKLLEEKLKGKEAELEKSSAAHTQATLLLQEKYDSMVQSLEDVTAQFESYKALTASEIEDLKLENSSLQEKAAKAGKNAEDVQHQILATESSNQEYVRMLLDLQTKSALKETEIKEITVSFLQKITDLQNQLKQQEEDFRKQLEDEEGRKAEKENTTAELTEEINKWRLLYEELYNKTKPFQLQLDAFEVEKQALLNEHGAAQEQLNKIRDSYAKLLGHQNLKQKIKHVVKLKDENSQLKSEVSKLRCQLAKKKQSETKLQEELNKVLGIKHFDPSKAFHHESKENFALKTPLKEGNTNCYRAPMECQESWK

[2] = target: T2, Hyaluronan mediated motility receptor (Homo sapiens) (UniProt O75330); assay: Inhibition of C-terminal His-tagged 7 kDa RHAMM (unknown origin) binding to HA assessed as association constant at 10 nM after 240 secs by SPR method
T2 sequence (whole entry): T1 sequence (O75330 whole entry)

[3] = target: T2, Hyaluronan mediated motility receptor (Homo sapiens); assay: Inhibition of C-terminal His-tagged 7 kDa RHAMM (unknown origin) binding to HA assessed as association constant at 750 nM after 240 secs by SPR method
[4] = target: T2, Hyaluronan mediated motility receptor (Homo sapiens); assay: Inhibition of C-terminal His-tagged 7 kDa RHAMM (unknown origin) binding to HA assessed as association constant at 500 nM after 240 secs by SPR method
[5] = target: T1, Hyaluronan mediated motility receptor; assay: Inhibition of C-terminal His-tagged 7 kDa RHAMM (unknown origin) binding to HA after 240 secs by SPR method
[6] = target: T2, Hyaluronan mediated motility receptor (Homo sapiens); assay: Inhibition of C-terminal His-tagged 7 kDa RHAMM (unknown origin) binding to HA assessed as association constant at 100 nM after 240 secs by SPR method
[7] = target: T2, Hyaluronan mediated motility receptor (Homo sapiens); assay: Inhibition of C-terminal His-tagged 7 kDa RHAMM (unknown origin) binding to HA assessed as association constant at 1 nM after 240 secs by SPR method
[8] = target: T2, Hyaluronan mediated motility receptor (Homo sapiens); assay: Inhibition of C-terminal His-tagged 7 kDa RHAMM (unknown origin) binding to HA assessed as association constant at 1000 nM after 240 secs by SPR method
[9] = target: T2, Hyaluronan mediated motility receptor (Homo sapiens); assay: Inhibition of C-terminal His-tagged 7 kDa RHAMM (unknown origin) binding to HA at 1 to 1000 nM after 240 secs by SPR method

| Substance | Kd [1] [nM] | K [2] [×10⁴ /M.s] | K [3] [×10⁴ /M.s] | K [4] [×10⁴ /M.s] | Kd [5] [nM] | K [6] [×10⁴ /M.s] | K [7] [×10⁴ /M.s] | K [8] [×10⁴ /M.s] | inhibition [9] |
| --- | --- | --- | --- | --- | --- | --- | --- | --- | --- |
| H-GEFEEEAEEEVA-NH2 | 130 | 0.22 | 1.2 | 1 | 265 | 1.5 | 0.48 | 1.6 | – |
| H-GEFSEAREDMAA-NH2 | – | – | – | – | – | – | – | – | inactive |
| H-EAFEDEEEEIDG-NH2 | 211 | 3.1 | 2.9 | 0.9 | 289 | 3.1 | 3.7 | 3.4 | – |
| H-SVEAEAEEGEEY-NH2 | 331 | 0.16 | 1.9 | 2.3 | 31.9 | 1.4 | 0.02 | 1.3 | – |

Continued by falling Kd [1], values first:

| Kd [1] [nM] | K [2] [×10⁴ /M.s] | K [3] [×10⁴ /M.s] | K [4] [×10⁴ /M.s] | Kd [5] [nM] | K [6] [×10⁴ /M.s] | K [7] [×10⁴ /M.s] | K [8] [×10⁴ /M.s] | inhibition [9] | Substance |
| --- | --- | --- | --- | --- | --- | --- | --- | --- | --- |
| 32.6 | 2.3 | 3.3 | 3 | 202 | 1.4 | 5.7 | 4 | – | H-EEDFGEEAEEEA-NH2 |
| 30.2 | 0.5 | 3.5 | 4.9 | 20.9 | 0.1 | 0.8 | 2 | – | H-FTEAESNMNDLV-NH2 |
| 24.2 | 1.6 | 5 | 5.8 | 43.3 | 0.2 | 0.7 | 4.1 | – | H-VEGEGEEEGEEY-NH2 |

Source: ChEMBL document CHEMBL4152371, “A truncated RHAMM protein for discovering novel therapeutic peptides” (Bioorg Med Chem, 2018)
